Laboratory results: patent EP4755887A1, “POLYCYCLIC FUSED-RING BTK DEGRADATION AGENT AND USE THEREOF IN MEDICINE” (Haisco Pharmaceutical Group Co., Ltd., priority 2023, dated 2025)
Read-outs that look alike come from different tables or passages of the source.

Key:
BTK = BTK (Homo sapiens, UniProt Q06187); test: Detection of BTK degradation in Mino cells; format: cell-based; conditions: read-out: DC50 values for BTK degradation in Mino cells
BTK L528W = BTK L528W (Homo sapiens, UniProt Q06187, L528W)
[1] = Pharmacokinetic test in rats; format: in vivo; conditions: male, SD, rat, plasma, po, i.g. (10 mg/kg)
Description: Experimental objective: In this experiment, a single dose of the test compound was administered to SD rats via intravenous administration and intragastric gavage, and the concentration of the test compound in plasma of the rats was measured to evaluate the pharmacokinetic profile of the test compound in the rats.
Experimental animals: Male SD rats, 200-220 g, 6-8 weeks old, 6 rats/compound, purchased from Chengdu Ddossy Experimental Animals Co., Ltd.
Experimental method: On the day of the experiment, 6 SD rats were randomly grouped according to their body weights. The animals were fasted with water available for 12 to 14 h one day before the administration, and were fed 4 h after the administration.
Sampling: Before and after the administration, 0.06-0.15 mL of blood was taken from the orbits under isoflurane anaesthesia, and placed in an EDTAK2 centrifuge tube. Centrifugation was carried out at 5000 rpm at 4°C for 10 min, and the plasma was collected.
The plasma collection time points for PO groups were 0, 5 min, 15 min, 30 min, 1 h, 2 h, 4 h, 7 h, 24 h, and 48 h.
The plasma collection time points for IV groups were 0, 5 min, 15 min, 30 min, 1 h, 2 h, 4 h, 7 h, and 24 h.
Before analysis and detection, all samples were stored at -60°C. The samples were analysed quantitatively by LC-MS/MS.

Caco2 permeability test = format: in vitro ADME; conditions: human, Caco-2 monolayer, pH 7.4
Description: In the experiment, a monolayer of Caco-2 cells was used, and incubated in triplicate in a 96-well Transwell plate. A transport buffer solution (HBSS, 10 mM HEPES, pH 7.4 ± 0.05) containing the compound of the present invention (2 µM) or the control compound digoxin (10 µM), nadolol (2 µM) or metoprolol (2 µM) was added to the administration end hole on the apical side or basal side. A DMSO-containing transport buffer solution was added to the corresponding receiving end hole. After incubation for 2 hours at 37°C ± 1°C, the cell plate was removed, and an appropriate amount of samples was taken from both the apical side and basal side and transferred to a new 96-well plate. Subsequently, acetonitrile containing an internal standard was added to precipitate the protein. The samples were analysed using LC MS/MS, and the concentrations of the compound of the present invention and the control compound were determined. Concentration data were used to calculate apparent permeability coefficients for transport from the apical side to the basal side, and from the basal side to the apical side of the cell monolayer, and thus to calculate the efflux ratio. The integrity of the cell monolayer after 2 hours of incubation was evaluated by leakage of Lucifer Yellow.

TMD-8 cells = test: TMD-8 cell proliferation inhibitory activity test; format: cell-based; conditions: Homo sapiens, TMD8, 72 hours, CellTiter-Glo, read-out: IC50 values for inhibiting TMD-8 cell proliferation
Description: TMD-8 is a human lymphoma cell line that expresses BTK protein and is used to evaluate the efficacy of compounds. […] The cells were seeded into a 96-well culture plate (Biosharp, BS-MP-96W) at a density of 3,000 cells per well. […] Following incubation, 50 µL of a detection solution (CellTiter-Glo®, Promega, G7573) was added to each well, and the plate was uniformly mixed for 2 minutes and incubated at room temperature for 10 minutes. The chemiluminescence reading was then measured using a microplate reader (Molecular Devices, SpectraMax Paradigm). The inhibition rate of cell proliferation by the compounds was calculated according to Equation (1), where RLU compound represents the readout from the compound-treated well, RLU control represents the readout from the DMSO vehicle control well, and RLU blank represents the readout from the cell-free well. Data analysis was performed using Graphpad Prism 8.0 software. The concentration-response curve was generated by fitting the data to a four-parameter equation, and the IC50 values for the compound's inhibition of cell proliferation were calculated. Inh% = 100%−(RLUcompound−RLUblank)/(RLUcontrol−RLUblank)*100% [formula] Table 1. IC50 values for inhibiting TMD-8 cell proliferation

[2] = Mino cells, 6 hours, automated western blot
[3] = 5 nM concentration, REC-1 BTK L528W cells, 6 hours

BTK L528W, sequence (Q06187 whole entry L528W): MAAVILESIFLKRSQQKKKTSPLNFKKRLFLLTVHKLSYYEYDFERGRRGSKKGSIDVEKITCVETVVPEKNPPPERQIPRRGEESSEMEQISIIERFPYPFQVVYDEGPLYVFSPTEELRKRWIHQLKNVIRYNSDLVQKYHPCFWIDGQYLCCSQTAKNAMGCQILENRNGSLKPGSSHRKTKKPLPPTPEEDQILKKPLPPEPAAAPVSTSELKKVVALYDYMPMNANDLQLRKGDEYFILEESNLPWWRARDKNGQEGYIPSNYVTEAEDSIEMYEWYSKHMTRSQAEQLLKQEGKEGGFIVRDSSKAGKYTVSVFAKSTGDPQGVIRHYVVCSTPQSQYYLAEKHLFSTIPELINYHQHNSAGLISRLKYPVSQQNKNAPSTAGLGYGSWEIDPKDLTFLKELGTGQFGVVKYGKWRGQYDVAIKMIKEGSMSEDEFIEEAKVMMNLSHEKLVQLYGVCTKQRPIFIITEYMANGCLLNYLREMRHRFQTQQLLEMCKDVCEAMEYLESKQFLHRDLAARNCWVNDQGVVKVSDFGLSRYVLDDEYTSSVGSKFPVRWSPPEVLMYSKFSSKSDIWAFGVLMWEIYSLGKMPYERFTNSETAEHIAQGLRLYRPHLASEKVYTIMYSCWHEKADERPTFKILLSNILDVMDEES
BTK, sequence (Q06187 whole entry): as the sequence (Q06187 whole entry L528W) above, with W528L counted along it

In the case of `CN1CCN([C@@H]2CCCN(c3cnc(C(N)=O)c(Nc4ccc(N5CCC6(CC5)CC(CN5CCN7c8cc(F)c(C(=O)N[C@H]9CCC(=O)NC9=O)cc8CC[C@@H]7C5)C6)cc4)n3)C2)C1=O` [Compound 50], the DC50 (BTK) is reported as < 10 nM.

For `[2H]C([2H])([2H])N1CCN([C@@H]2CCCN(c3cnc(C(N)=O)c(Nc4ccc(N5CCC(CN6CCN7c8cc(F)c(N9CCC(=O)NC9=O)cc8CC[C@@H]7C6)CC5)cc4)n3)C2)C1=O` [Compound 66], the “BTK degradation rate %” value (BTK L528W) was >80% and the DC50 (BTK) was < 10 nM.

In the case of `CN1CCN([C@@H]2CCCN(c3cnc(C(N)=O)c(Nc4ccc(N5CCC(CN6CCN7c8cc(F)c(C9CCC(=O)NC9=O)cc8CC[C@@H]7C6)C(F)(F)C5)cc4)n3)C2)C1=O` (single isomer, unassigned) [Compound 27], the DC50 (BTK; [2]) is reported as < 10 nM.

In the case of `NC(=O)c1nnc(N2CCC[C@@H](N3CCN(CC4CC4)C3=O)C2)nc1Nc1ccc(N2CCC(CN3CCN4c5cc(F)c(C6CCC(=O)NC6=O)cc5CC[C@H]4C3)CC2)cc1` (some centres unmarked) [Trifluoroacetate of compound 93], the “BTK degradation rate %” value (BTK L528W; [3]) is reported as >70%.

With `[2H]C([2H])([2H])N1CCN([C@@H]2CCCN(c3cnc(C(N)=O)c(Nc4ccc(N5CCC(CN6CCN7c8cc(F)c(C(=O)N[C@H]9CCC(=O)NC9=O)cc8CC[C@@H]7C6)CC5)cc4)n3)C2)C1=O` [Compound 68] the “BTK degradation rate %” value (BTK L528W) was >90% and the DC50 (BTK) was < 10 nM.

With `COCCN1CCN([C@@H]2CCCN(c3nnc(C(N)=O)c(Nc4ccc(N5CCC(CN6CCN7c8cc(F)c(C9CCC(=O)NC9=O)cc8CC[C@H]7C6)CC5)cc4)n3)C2)C1=O` (some centres unmarked) [Compound 82] the “BTK degradation rate %” value (BTK L528W; [3]) was >85%.

For `CN1CCN([C@@H]2CCCN(c3cnc(C(N)=O)c(Nc4ccc(N5CCC(CN6CCN7c8cc(F)c(C9CCC(=O)NC9=O)cc8CC[C@H]7C6)CC5)cc4)n3)C2)C1=O` (some centres unmarked) [Compound 11], the bioavailability ([1]; Vehicle 1) was > 50%, the AUC(0-t) ([1]; Vehicle 1) was > 1000 ng·h/mL and the DC50 (BTK; [2]) was < 10 nM. The Papp A→B at 2 h, 2 µM (Caco2 permeability test) was 1.75 ×10⁻⁶ cm/s, the Papp B→A at 2 h, 2 µM (Caco2 permeability test) was 3.74 ×10⁻⁶ cm/s and the efflux ratio at 2 h, 2 µM (Caco2 permeability test) was 2.14. The IC50 (TMD-8 cells) was < 20 nM.

For `NC(=O)c1nnc(N2CCC[C@@H](N3CCN(C4CC4)C3=O)C2)nc1Nc1ccc(N2CCC(CN3CCN4c5cc(F)c(C6CCC(=O)NC6=O)cc5CC[C@H]4C3)CC2)cc1` (some centres unmarked) [Compound 89], the “BTK degradation rate %” value (BTK L528W; [3]) was >80%.

With `CN1CCN([C@@H]2CCCN(c3cnc(C(N)=O)c(Nc4ccc(N5CCC(N6CCN7c8cc(F)c(C(=O)N[C@H]9CCC(=O)NC9=O)cc8CC[C@H]7C6)CC5)cc4)n3)C2)C1=O` [Trifluoroacetate of compound 36] the DC50 (BTK) was < 10 nM.

With `CN1CCN([C@@H]2CCCN(c3cnc(C(N)=O)c(Nc4ccc(N5CCC(CN6CCN7c8cc(F)c(N9CCC(=O)NC9=O)cc8CC[C@@H]7C6)CC5)cc4)n3)C2)C1=O` [Compound 22] the AUC(0-t) ([1]; Vehicle 2) was > 1000 ng·h/mL, the DC50 (BTK; [2]) was < 10 nM and the Papp A→B at 2 h, 2 µM (Caco2 permeability test) was 2.38 ×10⁻⁶ cm/s. For the same compound, the Papp B→A at 2 h, 2 µM (Caco2 permeability test) was 4.44 ×10⁻⁶ cm/s and the efflux ratio at 2 h, 2 µM (Caco2 permeability test) was 1.87.

With `COCCN1CCN([C@@H]2CCCN(c3nnc(C(N)=O)c(Nc4ccc(N5CCC(CN6CCN7c8cc(F)c(C9CCC(=O)NC9=O)cc8CC[C@H]7C6)CC5)c(F)c4)n3)C2)C1=O` (some centres unmarked) [Compound 83] the “BTK degradation rate %” value (BTK L528W; [3]) was >85%.

In the case of `CN1CCN([C@@H]2CCCN(c3cnc(C(N)=O)c(Nc4ccc(N5CCC(CN6CCN7c8cc(F)c(C9CCC(=O)NC9=O)cc8CC[C@H]7C6)C(F)(F)C5)cc4)n3)C2)C1=O` (single isomer, unassigned) [Compound 30], the DC50 (BTK; [2]) is reported as < 10 nM.

In the case of `COCCN1CCN([C@@H]2CCCN(c3cnc(C(N)=O)c(Nc4ccc(N5CCC(CN6CCN7c8cc(F)c(C9CCC(=O)NC9=O)cc8CC[C@H]7C6)CC5)cc4)n3)C2)C1=O` (some centres unmarked) [Compound 84], the “BTK degradation rate %” value (BTK L528W; [3]) is reported as >70%.

For `CN1CCN([C@@H]2CCCN(c3cnc(C(N)=O)c(Nc4ccc(N5CCC(CN6CCN7c8cc(F)c(C9CCC(=O)NC9=O)cc8CC[C@@H]7C6)C(F)(F)C5)cc4)n3)C2)C1=O` (single isomer, unassigned) [Compound 28], the DC50 (BTK; [2]) was < 10 nM.

For `CN1CCN([C@@H]2CCCN(c3nnc(C(N)=O)c(Nc4ccc(N5CCC(CN6CCN7c8cc(F)c(C9CCC(=O)NC9=O)cc8CC[C@@H]7C6)CC5)c(F)c4)n3)C2)C1=O` (some centres unmarked) [Compound 77], the AUC(0-t) ([1]; Vehicle 2) was > 1000 ng·h/mL, the “BTK degradation rate %” value (BTK L528W; [3]) was >90% and the Papp A→B at 2 h, 2 µM (Caco2 permeability test) was 0.984 ×10⁻⁶ cm/s. It also gave a Papp B→A at 2 h, 2 µM (Caco2 permeability test) of 4.89 ×10⁻⁶ cm/s and an efflux ratio at 2 h, 2 µM (Caco2 permeability test) of 4.97.

For `CN1CCN([C@@H]2CCCN(c3cnc(C(N)=O)c(Nc4ccc(N5CCC(CN6CCN7c8cc(F)c(C9CCC(=O)NC9=O)cc8CC[C@@H]7C6)CC5)cc4)n3)C2)C1=O` (some centres unmarked) [Compound 12], the “BTK degradation rate %” value (BTK L528W; [3]) was >90%, the DC50 (BTK; [2]) was < 10 nM and the Papp A→B at 2 h, 2 µM (Caco2 permeability test) was 1.18 ×10⁻⁶ cm/s. For the same compound, the Papp B→A at 2 h, 2 µM (Caco2 permeability test) was 4.71 ×10⁻⁶ cm/s, the efflux ratio at 2 h, 2 µM (Caco2 permeability test) was 3.99 and the IC50 (TMD-8 cells) was < 20 nM.

In the case of `CN1CCN([C@@H]2CCCN(c3cnc(C(N)=O)c(Nc4ccc(N5CCC6(CC5)CC(CN5CCN7c8cc(F)c(C9CCC(=O)NC9=O)cc8CC[C@H]7C5)C6)cc4)n3)C2)C1=O` (some centres unmarked) [Compound 14], the AUC(0-t) ([1]; Vehicle 2) is reported as > 1000 ng·h/mL, the DC50 (BTK; [2]) is reported as < 10 nM and the Papp A→B at 2 h, 2 µM (Caco2 permeability test) is reported as 0.35 ×10⁻⁶ cm/s. The Papp B→A at 2 h, 2 µM (Caco2 permeability test) was 0.867 ×10⁻⁶ cm/s and the efflux ratio at 2 h, 2 µM (Caco2 permeability test) was 2.47.

In the case of `CN1CCN([C@@H]2CCCN(c3cnc(C(N)=O)c(Nc4ccc(N5CCC6(CC5)CC(N5CCN7c8cc(F)c(C9CCC(=O)NC9=O)cc8CC[C@H]7C5)C6)cc4)n3)C2)C1=O` (some centres unmarked) [Compound 31], the DC50 (BTK; [2]) is reported as < 10 nM.

Compound `CN1CCN([C@@H]2CCCN(c3cnc(C(N)=O)c(Nc4ccc(C5CCN(CC6CCN(c7ccc(C(=O)N[C@H]8CCC(=O)NC8=O)nc7)CC6)CC5)cc4)n3)C2)C1=O` [Control compound 1, reference compound] has a Papp A→B at 2 h, 2 µM (Caco2 permeability test) of 0.101 ×10⁻⁶ cm/s, a Papp B→A at 2 h, 2 µM (Caco2 permeability test) of 5.27 ×10⁻⁶ cm/s and an efflux ratio at 2 h, 2 µM (Caco2 permeability test) of 52.5.

In the case of `CN1CCN([C@@H]2CCCN(c3cnc(C(N)=O)c(Nc4ccc(N5CCC6(CC5)CC(N5CCN7c8cc(F)c(C(=O)N[C@H]9CCC(=O)NC9=O)cc8CC[C@H]7C5)C6)cc4)n3)C2)C1=O` [Compound 34], the “BTK degradation rate %” value (BTK L528W) is reported as >90% and the DC50 (BTK) is reported as < 10 nM.

With `CN1CCN([C@@H]2CCCN(c3cnc(C(N)=O)c(Nc4ccc(N5CCC6(CC5)CC(N5CCN7c8cc(F)c(C9CCC(=O)NC9=O)cc8CC[C@@H]7C5)C6)cc4)n3)C2)C1=O` (some centres unmarked) [Compound 32] the DC50 (BTK; [2]) was < 10 nM.

With `CN1CCN([C@@H]2CCCN(c3cnc(C(N)=O)c(Nc4ccc(N5CCC(CN6CCN7c8cc(F)c(C9CCC(=O)NC9=O)cc8CC[C@H]7C6)C(F)(F)C5)cc4)n3)C2)C1=O` (single isomer, unassigned) [Compound 29] the DC50 (BTK; [2]) was < 10 nM.

With `[2H]C([2H])([2H])N1CCN([C@@H]2CCCN(c3nnc(C(N)=O)c(Nc4ccc(N5CCC(CN6CCN7c8cc(F)c(C(=O)N[C@H]9CCC(=O)NC9=O)cc8CC[C@@H]7C6)CC5)cc4)n3)C2)C1=O` [Compound 61] the “BTK degradation rate %” value (BTK L528W) was >90% and the DC50 (BTK) was < 10 nM.

For `[2H]C([2H])([2H])N1CCN([C@@H]2CCCN(c3cnc(C(N)=O)c(Nc4ccc(N5CCC(CN6CCN7c8cc(F)c(C(=O)N[C@H]9CCC(=O)NC9=O)cc8CC[C@H]7C6)CC5)cc4)n3)C2)C1=O` [Compound 67], the “BTK degradation rate %” value (BTK L528W) was >90% and the DC50 (BTK) was < 10 nM.

With `CN1CCN([C@@H]2CCCN(c3nnc(C(N)=O)c(Nc4ccc(N5CCC(CN6CCN7c8cc(F)c(C(=O)N[C@H]9CCC(=O)NC9=O)cc8CC[C@@H]7C6)CC5)cc4)n3)C2)C1=O` [Compound 47] the “BTK degradation rate %” value (BTK L528W) was >90% and the DC50 (BTK) was < 10 nM.
